Where two headings read alike, the source gives them in different places.
Key:
[1] = system: homologous recombination in BxPC3 cells; assay: Homologous recombination assay (two-plasmid recombination, real-time PCR); assay type: cell-based, human; conditions: Homo sapiens, BXPC-3
Source text: Our working hypothesis is that compounds disrupting RAD51-BRCA2 interaction should affect HR repair and increase the efficacy of PARPi in treating breast, ovarian, and pancreatic cancer. For its clinical relevance, pancreatic adenocarcinoma was selected as our final model for cell-based experiments, and BxPC3 cells were selected for a straightforward comparison with the previously reported triazole derivatives.[30],[31] BxPC3 is derived from a human adenocarcinoma that expresses fully functional BRCA2.[38] As shown in Table 2 and according to the rationale of our hypothesis, our preliminary screening consisted of verifying the efficacy of compounds in inhibiting cell HR and/or in increasing the antiproliferative effect of olaparib. […] HR activity was assessed by evaluating the recombination rate between two transfected plasmids, using a commercially available assay. […] As for the emissucinic acid-containing compounds (4d, 12d, 18d, 20d–23d, 30d, 31d), one of the reasons for their lower potency in cells might be the general poor permeability, likely related to the ionizable acid moiety. […] We then characterized 35d in additional biophysical and cell-based experiments.
Homologous recombination (HR) was assessed by using a commercially available assay (Norgen). This assay is based on cell transfection with two plasmids that, upon cell entry, recombine. The efficiency of HR can be assessed by real-time PCR, using primer mixtures included in the assay kit. Different primer mixtures allow one to discriminate between the original plasmid backbones and their recombination product.
BxPC3 cells (2 × 10^5 per well) were seeded in a 24-well plate and allowed to adhere overnight. Co-transfection with the two plasmids was performed in Lipofectamine 2000 (Invitrogen) according to the manufacturer’s instructions. During transfection (5 h), cells were exposed to different doses of RAD51-BRCA2 disruptors, dissolved in RPMI in the presence of 0.6% DMSO. After washing with PBS, cells were harvested, and DNA was isolated using Illustra Tissue and Cell Genomic Prep Mini Spin kit (GE Healthcare). Sample concentration was measured using an ONDA Nano Genius photometer. The efficiency of HR was assessed by real-time PCR, using 25 ng of template, the primer mixtures included in the assay kit and following the protocol indicated by the manufacturer. Data analysis was based on the ΔΔCt method: [recombination product/backbone plasmids]^treated versus [recombination product/backbone plasmids]^control.

BRC4–RAD51 interaction = target: T1, BRC4–RAD51 interaction (Homo sapiens, UniProt Q06609); assay: Competitive biochemical ELISA assay (biotinylated BRC4 peptide vs RAD51); assay type: binding
T1 construct: purchased Creative Biomart (RAD51); Life Technologies (BRC4 peptide)
T1 sequence (Q06609 1-339): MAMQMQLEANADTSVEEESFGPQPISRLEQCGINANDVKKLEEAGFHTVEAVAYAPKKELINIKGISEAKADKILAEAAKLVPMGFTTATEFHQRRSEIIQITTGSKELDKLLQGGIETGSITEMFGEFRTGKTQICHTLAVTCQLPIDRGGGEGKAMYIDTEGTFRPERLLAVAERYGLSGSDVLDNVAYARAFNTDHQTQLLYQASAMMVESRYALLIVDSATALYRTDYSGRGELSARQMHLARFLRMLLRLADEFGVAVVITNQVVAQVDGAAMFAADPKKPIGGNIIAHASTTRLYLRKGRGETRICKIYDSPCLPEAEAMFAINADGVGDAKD
Outline: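 Plates coated with N-terminally biotinylated BRC4 peptide were blocked (1% BSA/PBST) and hybridised overnight with human RAD51. Compounds were tested from 0.01 to 100 μM in triplicate (1% DMSO); bound RAD51 was detected by anti-RAD51 and HRP-secondary antibodies with TMB colorimetric read-out.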

recombinant human RAD51 = target: T2, recombinant human RAD51 (Homo sapiens, UniProt Q06609); assay: Microscale thermophoresis (MST) binding assay; conditions: labeled His-hRAD51, 35d up to 40 μM, three replicates, read-out: Kd (RAD51-35d interaction)
T2 construct: made in house; host or cells: E. coli Rosetta2(DE3)pLysS, pET15b-His-hRAD51
T2 sequence (Q06609 1-339): T1 sequence (Q06609 1-339)
Description: To further assess the physical interaction between 35d and RAD51, a microscale thermophoresis (MST) assay was performed on the recombinant human RAD51 (see Experimental Section). The binding assay allowed us to determine the dissociation constant (Kd) for the RAD51-35d interaction and binding. […] This is in agreement with the ELISA assay, supporting the initial hypothesis that 35d could act as a RAD51-BRCA2 disruptor.
The recombinant protein hRAD51 was labeled with the Monolith His-Tag labeling kit RED-tris-NTA 2nd Generation kit (NanoTemper Technologies). MST measurements were simultaneously performed on 16 capillaries containing a constant concentration (25 nM) of labeled RED-tris-NTA 2nd Generation His-hRAD51 protein and 16 different concentrations of 35d in order to determine a concentration-dependent MST binding curve. The highest 35d concentration tested was 40 μM. Measurements were carried out in MST buffer (20 mM Hepes (pH 8.00), 250 mM KCl, 0.1 mM EDTA, 5% (v/v) glycerol, 5% DMSO).

CCC(=O)N1N=C(c2c(-c3ccccc3)c3cc(Cl)ccc3[nH]c2=O)CC1c1ccc(OC)cc1 (stereo not drawn) [Compound 35d, 6-Chloro-3-(5-(4-methoxyphenyl)-1-propionyl-4,5-dihydro-1H-pyrazol-3-yl)-4-phenylquinolin-2(1H)-one]
inhibition at 10 µM ([1]; 10 μM, BxPC3, 5 h during plasmid transfection): ~10% | inhibition at 20 µM ([1]; 20 μM, BxPC3, 5 h during plasmid transfection): 54% | EC50 ([1]; BxPC3, 5 h, tested up to 40 μM, polynomial regression, read-out: EC50 (dose causing a 50% inhibition of HR)): 18.4 µM | EC50 (BRC4–RAD51 interaction; Table 2, compounds selected for cell-based study, read-out: EC50 ELISA): 19 ± 1 µM | EC50 (BRC4–RAD51 interaction; competition with BRC4 for RAD51, triplicate, ± standard deviation, NA = not active, racemic mixtures unless enantiomer named, read-out: EC50 (μM) on ELISA assay): 19 ± 1 µM | Kd (recombinant human RAD51): 11 ± 6 µM

— publication PMC7997579, “Synthetic Lethality in Pancreatic Cancer: Discovery of a New RAD51-BRCA2 Small Molecule Disruptor That Inhibits Homologous Recombination and Synergizes with Olaparib” (Journal of Medicinal Chemistry, 2020)
